In brackets after ≈: the same amount, converted by molar mass.
How the values were obtained:
MRSA USA300 = test: MIC by broth microdilution (CLSI); assay type: cell-based; details: Staphylococcus aureus
Procedure: (§1) The antibacterial spectrum and susceptibility of WYBQ-4 against MRSA USA300, MSSA 29213, and clinically isolated S. aureus were determined using a broth microdilution method following the guidelines outlined by the Clinical and Laboratory Standards Institute (CLSI) ([37], [38]). […] The absorbance was measured at 600 nm, and experiments were repeated in three biological replicates.

[1] = system: methicillin-susceptible Staphylococcus aureus (MSSA) 29213; test: MIC by broth microdilution (CLSI); assay type: cell-based
Procedure: as §1

Gram-negative bacteria = test: MIC by broth microdilution (CLSI); assay type: cell-based; details: compared to that against Staphylococcus
MSSA ATCC 29213 = test: Postantibiotic effect (viable plate count); assay type: cell-based, Staphylococcus aureus; details: 1 h exposure
Procedure: The postantibiotic effect (PAE) of WYBQ-4 against MSSA 29213 was determined in MHB agar using the viable plate count method ([39]). […] After incubation at 37°C for 1 h, WYBQ-4 was removed by centrifugation and washing with phosphate-buffered saline (PBS). Subsequently, fresh MHB medium was added to resuspend the bacteria, and the mixture was incubated at 37°C with shaking. The number of colonies was counted by taking 10 μL of bacteria at 1-h intervals and applying them to BHI agar plates after appropriate dilution. PAE duration was calculated as follows: time (h) for bacteria to return to log-phase growth after drug treatment – time (h) for the control group to return to log-phase growth ([40]).

[2] = Acute toxicity test in mice; assay type: in vivo; details: intraperitoneal injection 300 mg/kg
Procedure: Acute toxicity test in mice. The acute toxicity test in mice was performed according to the requirements of the Chinese Guidelines for Acute Toxicity of Chemicals (H-GPT1-1) ([42]). In brief, each group of 6 female mice (6 to 8 weeks old, weights of 18 to 20 g, BALB/c) was intraperitoneally injected with a single dose of 300, 150, or 75 mg/kg body weight of WYBQ-4. The mice were injected with PBS as a control group. Then, the poisoning symptoms, abnormal behavior, and survival of the mice in each group were observed within 72 h.

PBP2a = PBP2a (Staphylococcus aureus, UniProt P07944); test: PBP2a acylation kinetics, nitrocefin competition assay; assay type: biochemical, MRSA
PBP2a, sequence (P07944 whole entry): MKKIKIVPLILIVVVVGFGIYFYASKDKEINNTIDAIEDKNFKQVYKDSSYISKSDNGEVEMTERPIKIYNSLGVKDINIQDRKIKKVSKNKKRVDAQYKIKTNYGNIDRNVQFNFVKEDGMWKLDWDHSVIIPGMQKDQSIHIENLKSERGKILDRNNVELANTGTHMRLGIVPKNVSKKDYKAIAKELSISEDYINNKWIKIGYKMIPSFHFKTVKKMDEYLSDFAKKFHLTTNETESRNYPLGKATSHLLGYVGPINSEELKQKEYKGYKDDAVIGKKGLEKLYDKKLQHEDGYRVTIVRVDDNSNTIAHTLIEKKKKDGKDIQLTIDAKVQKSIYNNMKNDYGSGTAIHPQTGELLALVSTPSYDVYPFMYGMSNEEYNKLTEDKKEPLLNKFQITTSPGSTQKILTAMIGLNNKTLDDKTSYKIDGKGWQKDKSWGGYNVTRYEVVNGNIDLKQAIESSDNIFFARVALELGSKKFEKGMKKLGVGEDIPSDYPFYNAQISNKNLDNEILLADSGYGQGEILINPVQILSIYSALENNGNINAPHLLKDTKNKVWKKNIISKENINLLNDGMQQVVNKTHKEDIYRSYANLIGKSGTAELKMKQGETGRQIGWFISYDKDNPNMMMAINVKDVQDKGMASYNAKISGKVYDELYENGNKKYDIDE
Procedure: Please refer to the supplemental material for the kinetic parameters of the interaction between WYBQ-4 and PBP2a and the determination of the rate of diacylation.
Supplementary Method. 1 Determination of the Kinetic Parameters for Interactions of […]
Determination of the kinetic parameters for interactions of WYBQ-4 with PBP2a The kinetic parameters of the interaction of WYBQ-4 with PBP2a were determined as previously described (1). The kinetics of the reaction between PBP2a of MRSA with WYBQ-4 was studied in homogeneous aqueous solution at 37℃ in 25 mM Hepes buffer, pH 7.0, containing 1 M NaCl and the inhibition of PBPs by β-lactams follows this kinetic scheme. […]
In this minimal scheme, E represents PBP2a, EI is the noncovalent preacylation complex, E-I is the covalent acyl-enzyme species, and P denotes the product of E-I hydrolysis and restoration of […]
The typical reactions of β-lactam could be monitored through competition with a chromophoric β-lactam, nitrocefin, or directly in certain cases by fluorescence intensity of protein. In this study, it is proposed to determine the secondary rate constants (k2/Ks) of WYBQ-4 by nitrocefin competition assay. The reaction was conducted in the above buffer, and the reaction system contained PBP2a (2.5 μM) and different concentrations of nitrocefin (20-120 μM). The reaction was carried out in a UV spectrophotometer (PERSEE T600, China) and the change in absorbance at 500 nm was […]
Apparent first-order rate constants for acylation by nitrocefin were determined by fitting the change in absorbance with time to eqn. (1):
A = A0 + ∆εn E0[(1 − exp (−kn∗ t)] + k0N0∆εn Ε0t (1) where A0 is the initial absorbance at 500 nm, ∆εn the change in molar absorption coefficient on nitrocefin hydrolysis (15900 M-1cm-1), E0 the initial enzyme concentration, N0 the initial nitrocefin concentration, kn* the (burst) pseudo-first-order rate constant for acylation of PBP2a by nitrocefin, and k0 the (line) second-order rate constant of a non-specific hydrolysis of nitrocefin in the presence of PBP2a. The second-order rate constants (kn) for acylation were calculated by fitting a plot of the apparent first-order rate constants (kn*) against the concentration of nitrocefin using a linear least-squares method.
Subsequently, nitrocefin (100 μM) was used as a reporter molecule to determine the apparent first-order rate constants for acylation of WYBQ-4 at different concentrations (0-500 μM) in competition assays. In this case, the change in absorbance at 500 nm with time was fitted to eqn.
Α = A + ∆ε E (k∗ ∕ (k∗ + k∗)(1 − exp (−(k∗ + k∗)t)) + k N ∆ε Ε t (2) […]

## C#CCO[C@@]1(NC(=O)CSc2cccc(C)c2)C(=O)N2C(C(=O)O)=C(CSc3nnnn3C)CSC21 (some centres unmarked) [WYBQ-4]
MRSA USA300
  MIC: 8 µg/mL (≈ 14.6 µM)
[1]
  MIC: 0.5 µg/mL (≈ 0.915 µM)
Gram-negative bacteria
  antibacterial activity: weak
MSSA ATCC 29213; 2× MIC
  PAE: 1.5 h
MSSA ATCC 29213; 8× MIC
  PAE: 3.5 h
[2]
  acute toxicity, survival of mice: did not affect the survival of the mice
PBP2a; PBP2a acylation
  k2: 4.872 ± 0.14 s^–1 × 10^3
PBP2a; pH 7, read-out: k2/ks
  kinact/KI: 174 ± 8.45 M⁻¹ s⁻¹

Source: publication PMC9603521, “WYBQ-4: a New Bactericidal Agent against Methicillin-Resistant Staphylococcus aureus” (Microbiology Spectrum, 2022)
